Results as given in patent US20110256121A1, “METHODS AND KITS FOR DIAGNOSING OR MONITORING AUTOIMMUNE AND CHRONIC INFLAMMATORY DISEASES” (THE REGENTS OF THE UNIVERSITY OF MICHIGAN, priority 2008, published 2011).

Tests used:
CD70 mRNA [1] = experiment: CD70 transcripts by real time RT-PCR in anti-CD3 + anti-CD28 stimulated CD4+ T cells; assay type: cell-based, human; conditions: 5 μm 5-azaC, 50 μm Pca, 20 μm Hyd, 40 μm U0126, 25 μm PD98059, 3 days
Description: In other studies, T cells were isolated by negative selection using magnetic beads and instructions provided by the manufacturer (Pan T cell Isolation Kit, Miltenyi), and the CD4+ or CD8+ subset was similarly isolated by magnetic cell sorting. Jurkat cells (E6-1) were cultured as previously described (See, e.g., Cornacchia et al., J Immunol 140:2197 (1998)). Purified human CD4+ T cells were first stimulated with plate bound anti-CD3 and soluble anti-CD28. Briefly, 24 well plates were coated with 300 μl of anti-CD3 (10 μg/ml in PBS—SouthernBiotech) 18 hours 4° C., washed, then 2×10^6 purified T cells were added to the wells in 2 ml RPMI 1640/10% FCS containing 2 μg/ml anti-CD28 (SouthernBiotech). The plates were incubated 37° C. in a humidified atmosphere containing 5% CO2 for 18-24 hours, then treated with 5 μm 5-azaC (Aldrich), 50 μm Pca (Sigma), 20 μm Hyd (Aldrich), 40 μm UO126 (Promega) or 25 μm PD98059 (Promega), and cultured for 3 additional days as described (See, e.g., Oelke et al., Arthritis Rheum 50:1850 (2004)).

T cell CD70 expression = experiment: CD70 expression on PHA-stimulated T cells by flow cytometry; assay type: cell-based, human; conditions: for CD70 expression on treated vs untreated PHA-stimulated T cells: unfractionated T cells, 3 days, dose-response for procainamide, PD98059, U0126
Description: Cells and cell culture. Peripheral blood mononuclear cells (PBMCs) were isolated by density-gradient centrifugation. T cells were then isolated by E-rosetting (See, e.g., Golbus et al., Clin Immunol Immunopathol 46, 129 (1988)). […] Where indicated, the cells were cultured in RPMI 1640/10% fetal calf serum (FCS) supplemented with interleukin-2 (IL-2) (See, e.g., Richardson et al., Clin Immunol Immunopathol 55, 368 (1990)), in round-bottomed 5-ml culture tubes (Falcon). Cells were stimulated with 1 μg/ml of PHA (Remel) for 16 hours, then cultured in 24-well plates at a density of 1×10^6 for an additional 72 hours in the presence of 2-deoxy-5-azaC or 5-azaC (Sigma-Aldrich), procainamide (Sigma-Aldrich), hydralazine (Sigma-Aldrich), or the MEK inhibitors U0126 (Promega) or PD98059 (Promega). In other studies, PHA-stimulated PBMCs were cultured in RPMI 1640/10% FCS and treated with indomethacin, chloroquine, hydrocortisone, and 6-mercaptopurine (6-MP) (all from Sigma-Aldrich). TT48E, a cloned, CD4+, tetanus toxoid-reactive human T cell line, was cultured as previously described (Cornacchia et al., J Immunol 140, 2197 (1988); Richardson et al., Arthritis Rheum 35, 647 (1992)).
Flow cytometric analysis. The following fluorochrome-conjugated monoclonal antibodies were obtained from BD PharMingen (San Diego, Calif.): FITC-conjugated anti-human CD70, CD2, or isotype-matched controls; phycoerythrin (PE)-conjugated anti-CD2, CD4, and CD8; and CyChromeconjugated anti-HLA-DR, CD2, and isotype controls. Staining and multicolor flow cytometric analysis were performed (See, e.g., Hale et al., Cell Immunol 220, 51 (2002)) using saturating concentrations of antibody.
The panel of inhibitors used included 5-azaC, an irreversible DNA methyltransferase inhibitor (See, e.g., Glover and Leyland-Jones, Cancer Treat Rep 71, 959 (1987)) procainamide, a competitive DNA methyltransferase inhibitor (See e.g., Scheinbart et al., J Rheumatol 18, 530 (1991)), and the ERK pathway inhibitors PD98059, U0126, and hydralazine.
Studies were performed examining the effects of the DNA methylation inhibitors on CD70 expression in CD4+ and CD8+ T cell subsets.

[2] = system: CD70-dependent B cell help; experiment: TT48E T cell clone and autologous B cell costimulation without PWM, IgG ELISA; assay type: cell-based, human; conditions: P<0.05
Description: T cell and B cell costimulation assays. E-rosette-purified T cells were stimulated for 16 hours with PHA and then treated with the indicated chemicals for an additional 72 hours as described above. Where indicated, T cell subsets were isolated by negative selection using magnetic beads (Miltenyi). B cells (1-4×10^5) enriched by negative selection using magnetic beads (Miltenyi) and assessed to be 70-85% pure using PE-conjugated anti-human CD21 (PharMingen), were added to washed, drug-treated autologous T cells, at T cell to B cell ratios of 4:1, 2:1, 1:1, 1:2, and 1:4. Where indicated, 0.625 μg/ml of PWM (Aldrich) was added. The cells were cultured in RPMI 1640/10% FBS/penicillin/streptomycin for 8 days in 96-well roundbottomed plates (Costar) containing a 200 μl total volume (performed in duplicate). Cells were supplemented with 50 μl of medium on day 4. Where indicated, 1 μg/ml of anti-CD70 monoclonal antibody (HNE51) (Dako) was added to the cultures. TT48E cells were similarly stimulated with PHA (1 μg/ml) for 18 hours, treated with the indicated drugs for 3 days, then similarly cultured with autologous B cells for 8 days. […]
IgG enzyme-linked immunosorbent assays (ELISAs). […] Serial dilutions of purified human IgG (Sigma) were used for quantitation. […] The plates were read at 405 nm using a SpectraMax spectrophotometer (Molecular Devices). […]

CD70 mRNA [3] = conditions: treated vs untreated T cells, real time RT-PCR

**Q.** Nc1ncn([C@@H]2O[C@H](CO)[C@@H](O)[C@H]2O)c(=O)n1 [5-azaC, 5-azacytidine] was tested. Which “CD70 transcripts relative to β-actin, treated vs untreated” value (CD70 mRNA [1]) did it give?
**A.** increase CD70 transcripts

**Q.** What about the “increase of CD70 MFI on CD4+ T cells” value (T cell CD70 expression; 1 μM 5-azaC, n=5, P=0.025) of the same molecule?
**A.** 1.53±0.45 fold

**Q.** What about the “CD70 expression on CD4+ T cells” value (T cell CD70 expression) of the same molecule?
**A.** increased CD70 expression on CD4+ T cells

**Q.** And the “5-azaC concentration producing the greatest effect on CD70 expression” value (T cell CD70 expression; range of 5-azaC concentrations, n=5)?
**A.** 1 µM

**Q.** What about the “CD70 expression on treated vs untreated PHA-stimulated T cells” value (T cell CD70 expression; 1 μM 5-azaC) of the same molecule?
**A.** small increase

**Q.** What about the “IgG produced by B cells cultured with drug-treated TT48E vs untreated T cells” value [2] of the same molecule?
**A.** produce greater amounts of IgG

**Q.** And the “CD70 mRNA relative to beta-actin” value (CD70 mRNA [3])?
**A.** increased the expression of CD70 mRNA

**Q.** With N#CC(=C(/N)Sc1ccccc1N)/C(C#N)=C(\N)Sc1ccccc1N [U0126] as the molecule, how does the “CD70 transcripts relative to β-actin, treated vs untreated” value (CD70 mRNA [1]) read?
**A.** increase CD70 transcripts

**Q.** What about the “increase of CD70 MFI on CD4+ T cells” value (T cell CD70 expression; 40 μM U0126, n=4, P=0.039) of the same molecule?
**A.** 3.20±0.44 fold

**Q.** And the “CD70 expression on CD4+ T cells” value (T cell CD70 expression)?
**A.** increased CD70 expression on CD4+ T cells

**Q.** What about the “increase of CD70 MFI in T cells treated with U0126 (FIG. 2I)” value (T cell CD70 expression; U0126, P=0.085, stated in the CD8+ context) of the same molecule?
**A.** 2.83±0.95 fold

**Q.** And the “CD70 expression on treated vs untreated PHA-stimulated T cells” value (T cell CD70 expression; 1 μM 5-azaC)?
**A.** increase in CD70 expression with treatment

**Q.** And the “IgG produced by B cells cultured with drug-treated TT48E vs untreated T cells” value [2]?
**A.** produce greater amounts of IgG

**Q.** And the “CD70 mRNA relative to beta-actin” value (CD70 mRNA [3])?
**A.** increased the expression of CD70 mRNA
